The source of these data is patent US11578072B2, “Spiro-lactam NMDA receptor modulators and uses thereof” (Aptinyx Inc., priority 2018, dated 2023).

One data set has as its system Sprague Dawley rats. The data set is described as follows: Bennett nerve injury assay (mechanical analgesia, paw withdrawal threshold). The format is in vivo. Particulars: 150 mg/kg PO. As for the experimental part:
The Bennett model of mechanical analgesia is used to assess the analgesic effects of compounds as measured by paw withdrawal threshold. Bennett G J, Xie Y K, “A peripheral mononeuropathy in rat that produces disorders of pain sensation like those seen in man,” Pain 33:87-107, 1988. […] Vehicle animals receive the surgery and then receive vehicle rather than test compound. Animals were tested 1 hr, 24 h and 1 wk post-test compound or vehicle administration.
Male 2-3 month old Sprague Dawley rats were used. Harlan was the supplier for all studies. Rats were housed in Lucite cages with aspen wood chip bedding, maintained on a 12:12 light:dark cycle (lights on at 5 AM), and given ad libitum access to Purina lab chow (USA) and tap water throughout the study.
Rats were anesthetized using inhaled isoflurane (2.5%). Sciatic nerve chronic constriction nerve injury surgery was performed as previously described (Bennett and Xie, 1988). An incision (˜1.5 cm in length) was made with a scalpel blade dorsally through skin on the right hind limb, parallel and posterior to femur. Using a small pointed hemostat, the biceps femoris and gluteus superficialis muscles were separated. Using curved blunt forceps, the common sciatic nerve was isolated and exposed. For the mechanical analgesia studies, the whole sciatic nerve was ligated. Using hemostats/forceps and chromic gut (5-0), the nerve was loosely ligated with a square knot; 3 ligatures, 1 mm apart were placed on the nerve. […] Testing occurred approximately 2 weeks post-surgery.
During testing, rats were acclimated to the surface of a suspended wire mesh grid (1 cm×1 cm, with the wire being 0.3 cm in diameter) for 15-20 min. Starting from the smallest, each Von Frey filament was pressed perpendicularly to the plantar surface of the affected (ipsilateral) hind paw until slightly bent and then held for 6 second. If an obvious hind paw withdrawal or a flinching behavior immediately after the withdrawal of the filament was not observed, the next larger filament was used in the same manner. In case of a response, a lower filament was used. This was repeated until six responses were collected.
For all studies, animals were baselined prior to study start to test for allodynia (defined as a paw withdrawal threshold under 5). A subset of animals was tested with gabapentin (150 mg/kg, PO) to ensure at least 50% analgesia. Once it was confirmed animals were ready for study initiation, animals were balanced across groups. All study investigators were blind to treatment conditions. Animals were dosed with 0.1, 1 or 10 mg/kg of test compound via oral gavage (PO), control sets of animals were dosed with gabapentin (150 mg/kg, PO) or vehicle (0.5% Na-CMC in 0.9% sterile saline, PO). Testing occurred 1 h post-dosing with animals retested 24 hrs and 1 week post-dosing. The percent analgesia calculations for each animal were made using the following equation: % analgesia=[(log(x)−y)/((log (z)−y)]*100, where x=the paw withdrawal threshold for the drug-treated animal in grams, y=the average of the log(x) values for the vehicle treated group, and z=the paw withdrawal threshold for naïve animals in grams (historical value of 15 used). The results for Compound AD, where the percentage of analgesia is measured at 1 hour, 24 hours, and 1 week after compound administration are as follows: for 0.1 mg/kg dose: 38.7% at 1 h, 34.5% at 24 h, and 19.7% at 1 wk; for 1 mg/kg dose: 24.1% at 1 h, 26.5% at 24 h, and 13.2% at 1 wk; and for 10 mg/kg dose: 61.2% at 1 h, 45.1% at 24 h, and 39.5% at 1 wk.

The next data set deals with T1, NMDAR2A (Homo sapiens, UniProt Q12879).
T1 construct: expressed in transfected cells; host or cells: HEK cells (membrane extract)
As to the kind of experiment: NMDAR agonist assay, [3H]MK-801 binding, NMDAR2A expressing HEK cell membranes. The format is biochemical. Details: key to NMDAR2A B: log EC50: 0=−; >1×10^−9 M (e.g., −8)=+; <1×10^−9 M (e.g., −10)++. Conditions: 50 μM glutamate; for EC50: read-out: NMDAR2A B: log EC50 (converted). As to the method:
(§1) Assays were conducted as described by Moskal et al., “GLYX-13: a monoclonal antibody-derived peptide that acts as an N-methyl-D-aspartate receptor modulator,” Neuropharmacology, 49, 1077-87, 2005. These studies were designed to determine if the test compounds act to facilitate NMDAR activation in NMDAR2A, NMDAR2B, NMDAR2C or NMDAR2D expressing HEK cell membranes as measured by increases in [3H]MK-801 binding.
(§2) In the assay, 300 μg of NMDAR expressing HEK cell membrane extract protein was preincubated for 15 minutes at 25° C. in the presence of saturating concentrations of glutamate (50 μM) and varying concentrations of test compound (1×10^−15M-1×10^−7M), or 1 mM glycine. Following the addition of 0.3 μCi of [3H]MK-801 (22.5 Ci/mmol), reactions were again incubated for 15 minutes at 25° C. (nonequilibrium conditions). Bound and free [3H]MK-801 were separated via rapid filtration using a Brandel apparatus.
(§3) In analyzing the data, the DPM (disintegrations per minute) of [3H]MK-801 remaining on the filter were measured for each concentration of test compound or for 1 mM glycine. The DPM values for each concentration of a ligand (N=2) were averaged. The baseline value was determined from the best fit curve of the DPM values modeled using the GraphPad program and the log(agonist) vs. response(three parameters) algorithm was then subtracted from all points in the dataset. The % maximal [3H]MK-801 binding was then calculated relative to that of 1 mM glycine: all baseline subtracted DPM values were divided by the average value for 1 mM glycine. The EC50 and % maximal activity were then obtained from the best fit curve of the % maximal [3H]MK-801 binding data modelled using the GraphPad program and the log(agonist) vs. response(three parameters) algorithm.
(§4) The tables below summarize the results for the wild type NMDAR agonists NMDAR2A, NMDAR2B, NMDAR2C, and NMDAR2D, and whether the compound is not an agonist (−), is an agonist (+), or is a strong agonist (++), where column A is based on the % maximal [3H]MK-801 binding relative to 1 mM glycine (−=0; <100%=+; and >100%=++); and column B is based on log EC50 values (0=−; >1×10^−9 M (e.g., −8)=+; and <1×10^−9 M (e.g., −10)++).

For a further data set, the target named is T2, NMDAR2B (Homo sapiens, UniProt Q13224).
T2 construct: expressed in transfected cells; host or cells: HEK cells (membrane extract)
The data set is described as follows: NMDAR agonist assay, [3H]MK-801 binding, NMDAR2B expressing HEK cell membranes. Type of data set: biochemical. Particulars: 50 μM glutamate; for EC50: read-out: NMDAR2B B: log EC50 (converted). As for the experimental part:
as §1, §2, §3, §4

The nature of data set [1]: IV pharmacokinetics in rats. Particulars: Sprague Dawley, in vivo, rat, 2 mg/kg, normal saline; for Vd: read-out: Vss. As to the method:
Sprague Dawley rats were dosed intravenously using a normal saline formulation containing 2 mg/kg of the compounds identified in the below table. The table below summarizes the results of the IV pharmacokinetics.

Data set [2] is described as follows: Microsomal stability (Human). Type of data set: in vitro ADME. Conditions: human microsomes, after 60 minutes. As to the method:
(§5) Microsomal stability of disclosed compounds was investigated. The following table indicates the percent of compound remaining after 60 minutes.

The next data set in a line: Plasma stability (Human). Type of data set: in vitro ADME. Conditions: after 60 minutes. As to the method:
(§6) Plasma stability of disclosed compounds was investigated. The following table indicates the percent of compound remaining after 60 minutes.

A short description of data set [3]: Microsomal stability (Rat). Type of data set: in vitro ADME. Conditions: rat microsomes, after 60 minutes. As to the method:
as §5

Data set [4] in a line: Oral pharmacokinetics in rats (plasma, brain, CSF). Particulars: rat, oral gavage, 10 mg/kg; for bioavailability / AUC(0-t) / Cmax / Tmax: Sprague Dawley, plasma. Type of data set: in vivo, Sprague Dawley rats. As to the method:
In another experiment, Sprague Dawley rats were dosed per os (oral gavage) using a normal saline formulation containing 10 mg/kg of the compounds identified in the table below. Plasma, brain, and CSF samples were analyzed at various time points over a 24 hour period. The table below summarizes the results of the oral pharmacokinetics, where the first three values (Tmax, Cmax and AUClast) are plasma values.

The nature of another data set: Plasma stability (Rat). The format is in vitro ADME. Particulars: after 60 minutes. As for the experimental part: as §6
Data set [5] has as its target T3, NMDAR2D (Homo sapiens, UniProt O15399).
T3 construct: expressed in transfected cells; host or cells: HEK cells (membrane extract)
The data set is described as follows: NMDAR agonist assay, [3H]MK-801 binding, NMDAR2D expressing HEK cell membranes. Type of data set: biochemical. Particulars: 50 μM glutamate. As to the method:
as §1, §2, §3, §4

Data set [6] addresses T4, NMDAR2D (Homo sapiens, UniProt O15399+Q05586).
T4 construct: expressed in transfected cells; host or cells: HEK cells (membrane extract)
The description is as above. Type of data set: biochemical. Conditions: 50 μM glutamate, read-out: NMDAR2D B: log EC50 (converted). As to the method:
as §1, §2, §3, §4

T2 sequence (Q13224 27-1484, species assumed, other chains not shown): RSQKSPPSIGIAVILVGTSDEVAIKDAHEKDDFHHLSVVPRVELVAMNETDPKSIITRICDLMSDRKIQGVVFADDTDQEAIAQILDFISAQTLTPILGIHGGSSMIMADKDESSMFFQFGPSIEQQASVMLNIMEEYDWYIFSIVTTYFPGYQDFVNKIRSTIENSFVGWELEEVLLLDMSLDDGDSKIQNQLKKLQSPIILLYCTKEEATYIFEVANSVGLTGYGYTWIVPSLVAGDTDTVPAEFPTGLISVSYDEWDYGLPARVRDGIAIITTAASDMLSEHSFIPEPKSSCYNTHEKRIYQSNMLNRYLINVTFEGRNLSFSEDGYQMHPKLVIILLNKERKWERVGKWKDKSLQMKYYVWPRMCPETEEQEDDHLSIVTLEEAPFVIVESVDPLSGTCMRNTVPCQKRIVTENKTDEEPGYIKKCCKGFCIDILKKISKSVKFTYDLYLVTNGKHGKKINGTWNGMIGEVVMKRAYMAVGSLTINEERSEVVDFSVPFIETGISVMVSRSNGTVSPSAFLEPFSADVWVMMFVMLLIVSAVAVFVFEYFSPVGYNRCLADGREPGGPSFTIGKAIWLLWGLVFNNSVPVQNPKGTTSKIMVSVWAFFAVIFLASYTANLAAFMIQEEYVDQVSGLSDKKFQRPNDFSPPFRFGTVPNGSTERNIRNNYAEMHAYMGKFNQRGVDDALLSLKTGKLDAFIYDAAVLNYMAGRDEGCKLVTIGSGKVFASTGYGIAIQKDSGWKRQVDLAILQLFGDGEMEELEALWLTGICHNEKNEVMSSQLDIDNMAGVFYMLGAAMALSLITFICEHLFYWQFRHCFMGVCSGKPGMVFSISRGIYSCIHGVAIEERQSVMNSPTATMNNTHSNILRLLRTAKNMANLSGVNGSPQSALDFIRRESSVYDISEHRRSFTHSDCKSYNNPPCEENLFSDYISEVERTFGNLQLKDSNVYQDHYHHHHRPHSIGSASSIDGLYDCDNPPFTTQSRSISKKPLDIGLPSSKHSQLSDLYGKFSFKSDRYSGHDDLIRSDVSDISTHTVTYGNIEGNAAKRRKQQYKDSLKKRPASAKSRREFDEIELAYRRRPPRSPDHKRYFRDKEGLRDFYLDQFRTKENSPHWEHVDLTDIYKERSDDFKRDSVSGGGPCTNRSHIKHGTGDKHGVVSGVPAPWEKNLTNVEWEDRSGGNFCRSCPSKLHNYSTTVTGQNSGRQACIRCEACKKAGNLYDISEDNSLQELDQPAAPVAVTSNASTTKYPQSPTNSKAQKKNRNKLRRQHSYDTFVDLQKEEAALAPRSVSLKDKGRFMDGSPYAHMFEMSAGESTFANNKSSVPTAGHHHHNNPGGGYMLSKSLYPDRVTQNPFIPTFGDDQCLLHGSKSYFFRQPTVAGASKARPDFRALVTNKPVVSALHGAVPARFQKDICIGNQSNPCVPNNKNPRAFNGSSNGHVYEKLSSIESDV
T1 sequence (Q12879 23-1464, species assumed, other chains not shown): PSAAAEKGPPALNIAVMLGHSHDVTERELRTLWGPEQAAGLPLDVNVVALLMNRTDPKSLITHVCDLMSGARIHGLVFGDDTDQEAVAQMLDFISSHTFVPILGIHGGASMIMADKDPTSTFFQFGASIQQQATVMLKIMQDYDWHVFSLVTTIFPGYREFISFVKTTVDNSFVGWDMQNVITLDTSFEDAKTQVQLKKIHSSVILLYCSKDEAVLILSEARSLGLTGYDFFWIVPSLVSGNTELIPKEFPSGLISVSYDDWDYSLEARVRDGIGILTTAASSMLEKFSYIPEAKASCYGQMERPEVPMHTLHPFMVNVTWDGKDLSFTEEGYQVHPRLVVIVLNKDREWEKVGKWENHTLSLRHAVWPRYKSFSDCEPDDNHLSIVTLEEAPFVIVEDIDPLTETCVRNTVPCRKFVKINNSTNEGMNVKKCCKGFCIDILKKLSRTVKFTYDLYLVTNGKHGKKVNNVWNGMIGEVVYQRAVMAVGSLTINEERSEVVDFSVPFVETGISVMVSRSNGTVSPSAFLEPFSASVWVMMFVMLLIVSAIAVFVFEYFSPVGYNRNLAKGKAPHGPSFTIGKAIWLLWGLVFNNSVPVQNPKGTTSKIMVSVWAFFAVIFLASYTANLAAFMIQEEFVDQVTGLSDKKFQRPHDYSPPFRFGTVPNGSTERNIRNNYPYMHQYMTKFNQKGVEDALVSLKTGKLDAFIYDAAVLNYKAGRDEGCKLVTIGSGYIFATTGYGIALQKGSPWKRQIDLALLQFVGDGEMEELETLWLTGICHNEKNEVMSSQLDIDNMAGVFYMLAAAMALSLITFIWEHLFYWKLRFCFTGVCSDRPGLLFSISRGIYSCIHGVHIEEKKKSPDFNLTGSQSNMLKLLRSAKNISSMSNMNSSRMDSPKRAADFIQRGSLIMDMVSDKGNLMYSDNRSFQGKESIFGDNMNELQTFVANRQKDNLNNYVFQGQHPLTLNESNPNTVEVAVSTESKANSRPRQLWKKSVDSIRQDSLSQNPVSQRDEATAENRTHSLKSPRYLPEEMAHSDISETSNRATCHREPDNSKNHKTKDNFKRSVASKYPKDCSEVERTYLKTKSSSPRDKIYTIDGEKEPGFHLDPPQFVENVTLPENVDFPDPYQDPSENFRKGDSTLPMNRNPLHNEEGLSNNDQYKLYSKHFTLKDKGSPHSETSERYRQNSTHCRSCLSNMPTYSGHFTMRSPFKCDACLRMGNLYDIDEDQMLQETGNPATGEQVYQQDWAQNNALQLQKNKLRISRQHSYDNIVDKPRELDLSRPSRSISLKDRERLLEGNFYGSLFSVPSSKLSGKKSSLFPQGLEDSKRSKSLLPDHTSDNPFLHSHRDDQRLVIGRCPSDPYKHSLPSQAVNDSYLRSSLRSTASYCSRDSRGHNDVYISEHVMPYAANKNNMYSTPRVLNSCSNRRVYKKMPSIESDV
T3 sequence (O15399 28-1336, species assumed, other chains not shown): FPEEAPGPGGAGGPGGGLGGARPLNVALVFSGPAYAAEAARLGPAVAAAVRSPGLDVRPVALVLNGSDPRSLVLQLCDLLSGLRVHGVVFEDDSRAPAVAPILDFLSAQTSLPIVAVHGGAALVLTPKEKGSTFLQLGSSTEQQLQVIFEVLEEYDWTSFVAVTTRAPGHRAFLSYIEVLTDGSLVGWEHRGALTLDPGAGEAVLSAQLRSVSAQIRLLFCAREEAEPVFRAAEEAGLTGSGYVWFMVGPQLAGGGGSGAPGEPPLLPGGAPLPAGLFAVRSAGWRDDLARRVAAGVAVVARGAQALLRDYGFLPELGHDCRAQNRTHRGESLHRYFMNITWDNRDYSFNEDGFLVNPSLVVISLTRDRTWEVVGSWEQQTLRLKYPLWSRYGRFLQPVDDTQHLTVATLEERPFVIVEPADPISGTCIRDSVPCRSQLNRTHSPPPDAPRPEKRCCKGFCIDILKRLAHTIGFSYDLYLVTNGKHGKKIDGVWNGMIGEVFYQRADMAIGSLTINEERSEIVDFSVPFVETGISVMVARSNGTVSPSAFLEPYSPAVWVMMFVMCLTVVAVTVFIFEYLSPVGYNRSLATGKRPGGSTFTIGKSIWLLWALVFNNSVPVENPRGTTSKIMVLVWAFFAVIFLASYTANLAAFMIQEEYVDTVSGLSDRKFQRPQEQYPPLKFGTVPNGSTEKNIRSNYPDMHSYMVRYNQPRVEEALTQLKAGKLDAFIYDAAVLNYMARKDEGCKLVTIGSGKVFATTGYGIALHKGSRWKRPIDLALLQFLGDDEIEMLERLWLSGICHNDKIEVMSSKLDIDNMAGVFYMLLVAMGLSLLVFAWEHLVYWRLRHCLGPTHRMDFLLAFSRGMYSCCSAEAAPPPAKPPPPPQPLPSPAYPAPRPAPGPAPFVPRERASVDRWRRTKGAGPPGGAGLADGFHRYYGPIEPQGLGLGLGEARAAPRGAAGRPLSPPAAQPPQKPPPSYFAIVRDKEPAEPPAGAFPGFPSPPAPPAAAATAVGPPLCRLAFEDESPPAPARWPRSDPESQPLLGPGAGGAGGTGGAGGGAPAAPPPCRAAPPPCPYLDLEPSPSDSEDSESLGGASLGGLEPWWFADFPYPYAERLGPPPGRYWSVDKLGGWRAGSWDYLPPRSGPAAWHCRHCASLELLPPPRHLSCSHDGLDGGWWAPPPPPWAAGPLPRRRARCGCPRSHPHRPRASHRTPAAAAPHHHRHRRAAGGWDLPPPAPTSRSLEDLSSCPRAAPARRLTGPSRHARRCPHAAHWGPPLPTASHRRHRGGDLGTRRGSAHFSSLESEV
T4 sequence (O15399 28-1336, species assumed, other chains not shown): as above

In the case of `NCC1(CC(=O)O)CCCCC1` [gabapentin, reference compound], the “% analgesia” value was “under 5%” in the data set with Sprague Dawley rats (1 week post-administration, control group of the study); 0% in the data set with Sprague Dawley rats (1 wk, example (typical) control values); 77% in the data set with Sprague Dawley rats (1 h, example (typical) control values); “at least 50%” with Sprague Dawley rats (1 h post-administration, control group of the study); 17% with Sprague Dawley rats (24 h, example (typical) control values); “under 5%” with Sprague Dawley rats (24 h post-administration, control group of the study).

On to `O=C1NCCCCC12CCNCC2` [AG, 3,8-diazaspiro[5.6]dodecan-7-one], for which, on NMDAR2A, the “NMDAR2A A: % maximal [3H]MK-801 binding relative to 1 mM glycine” value was “+ (<100%=+)” and the EC50 was < 1 nM. For the same compound, on NMDAR2B, the “NMDAR2B A: % maximal [3H]MK-801 binding relative to 1 mM glycine” value was “+ (<100%=+)” and the EC50 is < 1 nM.

For the compound `CC(C)(C)OC(=O)N1CCC2(CCCNC2=O)CC1` [AC, tert-butyl 1-oxo-2,9-diazaspiro[5.5]undecane-9-carboxylate], at NMDAR2A, the “NMDAR2A A: % maximal [3H]MK-801 binding relative to 1 mM glycine” value is recorded as “+ (<100%=+)” and the EC50 is > 1 nM. In [1], this compound had an AUC(0-t) of 845 ng·h/mL, a Cmax of 5660 ng/mL, a clearance of 39.5 mL/min/kg and a half-life of 0.12 h. In [1], the Vd was 0.31 L/kg. The “Microsomal (Human): percent of compound remaining” value in data set [2] was found to be 100%. Besides, the “Plasma (Human): percent of compound remaining” value in the data set “Plasma stability (Human)” was 100%. Moreover, on NMDAR2B, the “NMDAR2B A: % maximal [3H]MK-801 binding relative to 1 mM glycine” value is given as “+ (<100%=+)” and the EC50 is < 1 nM. The “Microsomal (Rat): percent of compound remaining” value in data set [3] is recorded as 96%. In data set [4], the bioavailability was found to be 44%, the AUC(0-t) amounted to 1860 ng·h/mL, the Cmax was determined as 3630 ng/mL and the time to peak (Tmax) came to 0.25 h. Also, in data set [4], the “CSF Cmax” value amounted to 261 ng/mL and the “Brain Cmax” value turned out to be 298 ng/mL. Besides, the “Plasma (Rat): percent of compound remaining” value in “Plasma stability (Rat)” was 100%.

For `O=C(O)C(F)(F)F.O=C1NCCCC12CCNCC2` [AA, 2,9-diazaspiro[5.5]undecan-1-one], on NMDAR2A, the “NMDAR2A A: % maximal [3H]MK-801 binding relative to 1 mM glycine” value is listed as “− (−=0)” and the “NMDAR2A B: log EC50” value was “−”. In [1], this compound had an AUC(0-t) of 1160 ng·h/mL, a Cmax of 2660 ng/mL, a clearance of 28.4 mL/min/kg and a half-life of 2 h. Further, in data set [1], the Vd came out at 1.76 L/kg. Also, the “Microsomal (Human): percent of compound remaining” value in data set [2] was 96%. Besides, in “Plasma stability (Human)”, the “Plasma (Human): percent of compound remaining” value came to 97%. Also, on NMDAR2B, the “NMDAR2B A: % maximal [3H]MK-801 binding relative to 1 mM glycine” value is given as “+ (<100%=+)” and the EC50 was < 1 nM. Moreover, in data set [3], the “Microsomal (Rat): percent of compound remaining” value stood at 91%. Also, in data set [4], the bioavailability was found to be 18%, the AUC(0-t) stood at 1020 ng·h/mL, the Cmax worked out at 325 ng/mL and the Tmax came out at 2.11 h. In data set [4], the “CSF Cmax” value is 12 ng/mL and the “Brain Cmax” value came out at 0 ng/mL. In addition, the “NMDAR2D A: % maximal [3H]MK-801 binding relative to 1 mM glycine” value on NMDAR2D [5] is “++ (>100%=++)”. At NMDAR2D [6], the EC50 is < 1 nM. In addition, the “Plasma (Rat): percent of compound remaining” value in the data set “Plasma stability (Rat)” is on record as 84%.
